Measurements as given in publication PMC5751249, “Anti-Diabetic Effect of Organo-Chalcogen (Sulfur and Selenium) Zinc Complexes with Hydroxy-Pyrone Derivatives on Leptin-Deficient Type 2 Diabetes Model ob/ob Mice” (International Journal of Molecular Sciences, 2017).

Assays:
[1] = tested on: type 2 diabetic ob/ob mice; assay: Daily oral treatment of ob/ob mice for 28 days: blood glucose, body weight, water intake; assay type: in vivo
Protocol: The anti-diabetic effects of both [Zn(hmpt)2] and [Zn(hmps)2] were examined in ob/ob mice. The ob/ob and +/+ mice were used as type 2 diabetic and normal (non-diabetic) mice, respectively. The ob/ob (10-week-old) and +/+ (10-week-old) mice received daily oral treatment of either Zn complexes dissolved in PEG-400 or PEG-400 only, respectively. The mice received oral treatments of [Zn(hmpt)2] or [Zn(hmps)2] at doses of 2.5–10 mg Zn/kg or 1.0–5.0 mg Zn/kg for 28 days, respectively. Blood glucose levels (BGL) were measured using a Glucocard (Arkray, Kyoto, Japan) just before treatment with the Zn complexes, and the doses were regulated based on the BGL. Over 28 days, BGL, body weight, food intake, and water intake were measured every day. The number of normal mice (+/+ mice), control mice (ob/ob mice), [Zn(hmpt)2]-treated, and [Zn(hmps)2]-treated mice was 6, 8, 8, and 8 in the initial animal experiments, respectively. This was modified to 6, 6, 7, and 8 after the end of experiments as two control mice died naturally by the end of experiments, and one [Zn(hmpt)2]-treated mouse died from an accident during the oral glucose tolerance test.

[2] = tested on: type 2 diabetic ob/ob mice; assay: Oral glucose tolerance test (OGTT) after 28 days treatment; assay type: in vivo
Protocol: After treatment with [Zn(hmpt)2] or [Zn(hmps)2] for 28 days, OGTTs were performed. The ob/ob mice and +/+ mice were fasted for 12-h and glucose (1 g/kg body weight) was given orally. Blood samples were obtained from the tail vein at 0, 15, 30, 45, 60, 90, and 120 min after glucose administration. Blood glucose concentrations were measured using a Glucocard.

[3] = tested on: type 2 diabetic ob/ob mice; assay type: in vivo
Protocol: (§1) After OGTT, HbA1c levels were measured in blood obtained from the mouse tail vein using an immunoassay with a DCA 2000 analyzer (Bayer-Sankyo Co., Ltd., Tokyo, Japan). The mice were subjected to a 12-h fast and blood samples were collected from the orbital vein or postcaval vein under isoflurane anesthesia using heparinized tools. Collected samples were then centrifuged at 650× g for 10 min at 4 °C, and the resultant plasma samples were used to analyze various biochemical parameters. The levels of AST, ALT, BUN, TG, T-CHO, and ALP in plasma samples were determined using a Fuji Dry Chem system. The plasma levels of insulin and adiponectin were determined using an ultra-sensitive Mouse Insulin ELISA Kit (Morinaga Institute of Biological Science, Inc., Kanagawa, Japan) and an adiponectin immunoassay kit (R&D Systems Inc., Minneapolis, MN, USA), respectively. After collecting the blood samples, mice were subjected to dissection under isoflurane anesthesia, and the resultant tissue samples were washed in saline. Each of the samples was dehydrated for a week in desiccators, weighed, and then heated in 5% HNO3 (5 mL) for 5 h at 110 °C in a closed system. The resultant solution was centrifuged at 1250× g for 15 min, and the supernatant was diluted using 5% HNO3. Both Zn and Se concentrations in organs were determined with an ICP-MS Agilent 7700x/Mass Hunter instrument (Agilent Technologies Inc., Santa Clara, CA, USA). The Zn and Se concentrations in each sample were calculated using linear regression of the standard curves prepared from standard solutions of the respective trace elements.

[4] = Organ distribution of Zn and Se by ICP-MS after 28 days oral treatment; assay type: in vivo, mice
Protocol: as §1

[5] = tested on: type 2 diabetic ob/ob mice; assay: Histopathology and morphometric analysis of pancreas and liver (HE staining); assay type: in vivo; settings: 14-week-old mice
Protocol: Excised pancreas and liver from 14-week-old mice were immediately fixed in 10% buffered formalin for a week, sectioned at a thickness of 3 μm, and stained with HE for histopathological examination. HE-stained tissue sections were scanned using a Moticam T2 (Shimadzu Co., Kyoto, Japan) to prepare digital images. Both pancreatic islet area and glycogen and fat deposition areas were calculated with the dedicated image processing software WinROOF (Mitani Corp., Tokyo, Japan).

[6] = tested on: type 2 diabetic ob/ob mice; assay: Triglyceride and glycogen contents in the liver; assay type: in vivo; settings: ob/ob mice after 28 days oral treatment
Protocol: Lipids in the liver were extracted according to modified Folch method. TG in the extracted lipids was detected using the triglyceride E test wako (Wako Pure Chemicals Co., Osaka, Japan). Glycogen in the liver was extracted with a strong base (30% KOH aq). Then, ethanol precipitation methods (using 95% ethanol and saturated Na2SO4), hydrolysis, and neutralization (with 2.4 M HCl aq and 0.8 M NaOH aq) of the glycogen extracts were performed, resulting in degradation to glucose solution. To detect the glucose levels in the solution using the glucose CII test wako (Wako Pure Chemicals Co., Osaka, Japan), glycogen levels in the liver were estimated. Because the liver sample of normal mice was used up during TG detection and ICP-MS analysis, glycogen content in the liver could not be detected.

[7] = tested on: Isolated male Wistar rat epididymal adipocytes; parameters: method as in PMID 29843022; settings: 20 μM Zn complex, means ± SDs, three runs; cited from earlier work
male Wistar rats = tested on: male Wistar rats; parameters: method as in earlier work; settings: in food 10 µg sodium selenite/kg/day (4.6 µg Se/kg/day), 3 months; cited from earlier work
male ICR mice = tested on: male ICR mice; parameters: method as in doi:10.1248/jhs1956.39.4_289; settings: six days per week, 30 days, cited from earlier work

Cc1occc(=[Se])c1[O-].Cc1occc(=[Se])c1[O-].[Zn+2] [[Zn(hmps)2], bis(3-hydroxy-2-methyl-4(H)-pyran-4-seleno)Zn]
Blood glucose level by the end of treatment ([1]; [Zn(hmpt)2] 2.5–10 mg Zn/kg, [Zn(hmps)2] 1.0–5.0 mg Zn/kg): approximately 200 mg/dL | Water intake on the final day ([1]; control 12.6 ± 1.6 g, p < 0.01 vs. control): 6.9 ± 0.5 g | Body weight change during treatment ([1]; loss seen day 22 to 25, recovered after dose reduction): Body weight gains | Area under the blood glucose concentration-time curve (AUC) in OGTT ([2]; 1 g glucose/kg oral, after 28 days treatment, compared with control mice): significantly decreased | Fasting blood glucose level (0 min of OGTT) ([2]; ob/ob mice after 28 days oral treatment, 12-h fast, control 237 ± 52 mg/dL): 172 ± 38 mg/dL | ALP (plasma) ([3]; mouse, in vivo, po): 550 ± 89 **^,##,†† U/L | ALT (plasma) ([3]; mouse, in vivo, po): 355 ± 138 **^,##,†† U/L | AST (plasma) ([3]; mouse, in vivo, po): 200 ± 55 **^,##,†† U/L | BUN (plasma) ([3]; mouse, in vivo, po): 24 ± 3 **^,## mg/dL | Insulin (fasting plasma) ([3]; ob/ob mice after 28 days oral treatment, control 2.2 ± 1.0): 1.4 ± 0.6 ng/mL | HbA1c ([3]; ob/ob mice after 28 days oral treatment, control 7.9 ± 0.8): 6.7 ± 0.4 **^,## % | Adiponectin (plasma) ([3]; ob/ob mice after 28 days oral treatment, control 8.2 ± 1.1): 9.0 ± 0.8 µg/mL | TG (plasma) ([3]; ob/ob mice after 28 days oral treatment, control 83 ± 16): 87 ± 11 mg/dL | T-CHO (plasma) ([3]; ob/ob mice after 28 days oral treatment, control 195 ± 16): 186 ± 16 mg/dL | Δ[Zn]/Δ[Se] molar ratio, bone ([4]; [Zn(L)] = 1.0, [Zn(L)2] = 0.5): 6.9 | Δ[Zn]/Δ[Se] molar ratio, kidney ([4]; [Zn(L)] = 1.0, [Zn(L)2] = 0.5): 0.25 | Δ[Zn]/Δ[Se] molar ratio, liver ([4]; [Zn(L)] = 1.0, [Zn(L)2] = 0.5): 0.61 | Δ[Zn]/Δ[Se] molar ratio, pancreas ([4]; [Zn(L)] = 1.0, [Zn(L)2] = 0.5): 27 | Se concentration, bone ([4]; dry tissue, ob/ob mice after 28 days oral treatment, control 0.5 ± 0.2): 1.9 ± 0.6 µg/g | Se concentration, muscle ([4]; dry tissue, ob/ob mice after 28 days oral treatment, control 1.3 ± 0.4): 2.5 ± 0.4 **^,#,†† µg/g | Se concentration, liver ([4]; dry tissue, ob/ob mice after 28 days oral treatment, control 2.1 ± 0.3): 5.1 ± 0.6 µg/g | Se concentration, pancreas ([4]; dry tissue, ob/ob mice after 28 days oral treatment, control 2.3 ± 0.6): 3.4 ± 0.8 **^,##,†† µg/g | Se concentration, spleen ([4]; dry tissue, ob/ob mice after 28 days oral treatment, control 2.7 ± 0.8): 9.1 ± 2.4 **^,##,†† µg/g | Se concentration, kidney ([4]; dry tissue, ob/ob mice after 28 days oral treatment, control 6.4 ± 0.2): 12.7 ± 2.0 **^,##,†† µg/g | Zn concentration, liver ([4]; dry tissue, ob/ob mice after 28 days oral treatment, control 44 ± 5): 46 ± 6 ^##^,† µg/g | Zn concentration, muscle ([4]; dry tissue, ob/ob mice after 28 days oral treatment, control 47 ±10): 41 ± 2 µg/g | Zn concentration, kidney ([4]; dry tissue, ob/ob mice after 28 days oral treatment, control 67 ± 3): 68 ± 4 µg/g | Zn concentration, spleen ([4]; dry tissue, ob/ob mice after 28 days oral treatment, control 100 ± 17): 95 ± 12 µg/g | Zn concentration, pancreas ([4]; dry tissue, ob/ob mice after 28 days oral treatment, control 133 ± 19): 158 ± 28 µg/g | Zn concentration, bone ([4]; dry tissue, ob/ob mice after 28 days oral treatment, control 154 ± 7): 162 ± 10 *^,^†† µg/g | Δ[Se], bone ([4]; mouse, in vivo, po): 18 nmol/g | Δ[Se], kidney ([4]; mouse, in vivo, po): 81 nmol/g | Δ[Se], liver ([4]; mouse, in vivo, po): 38 nmol/g | Δ[Se], pancreas ([4]; mouse, in vivo, po): 14 nmol/g | Δ[Se], plasma ([4]; mouse, in vivo, po): 6 nmol/g | Δ[Zn], bone ([4]; mouse, in vivo, po): 124 nmol/g | Δ[Zn], kidney ([4]; mouse, in vivo, po): 20 nmol/g | Δ[Zn], liver ([4]; mouse, in vivo, po): 23 nmol/g | Δ[Zn], pancreas ([4]; mouse, in vivo, po): 375 nmol/g | Δ[Zn], plasma ([4]; mouse, in vivo, po): 6 nmol/g | Se concentration, plasma ([4]; ob/ob mice after 28 days oral treatment, control 0.6 ± 0.1): 1.1 ± 0.2 **^,##,†† µg/mL | Zn concentration, plasma ([4]; ob/ob mice after 28 days oral treatment, control 2.1 ± 0.1): 2.5 ± 0.2 **^,## µg/mL | Pancreatic islet numbers per section ([5]; among normal, control and treated mice): not significantly changed | Glycogen and fat deposition area ratio in the liver ([5]; between control and treated mice): no significant differences | Pancreatic islet area ratio and size ([5]; compared with normal mice): significantly increased | Glycogen content in the liver ([6]; control 0.08 ± 0.04): 0.04 ± 0.01 mg/g liver | TG content in the liver ([6]; control 437 ± 139): 443 ± 42 mg/g liver | Glucose Uptake [7]: 138 ± 6 µg/10^6 Cells

O=[Se]([O-])[O-].[Na+].[Na+] [sodium selenite]
Hepatic histology finding (male Wistar rats): necrotic areas in hepatic sections were observed

N[C@@H](C[SeH])C(=O)O (racemic) [D,L-selenocysteine]
Lethality (male ICR mice; oral once daily 30 mg/kg/day (13.9 mg Se/kg/day)): 100% | Hepatic histology finding (male ICR mice; oral once daily 30 mg/kg/day): vacuolation of centrilobular and peripheral hepatocytes
